The values below are quoted from earlier work in US20090155335A1, “NON-LEACHING NON-FOULING ANTIMICROBIAL COATINGS” (priority 2007, published 2009).

This data set deals with methicillin resistant and vancomycin intermediate-resistant Staphylococcus aureus. The conditions noted are these: Dacron graft soaked in dermaseptin solution, rat.

For the substance dermaseptin, the “efficacy of released dermaseptin against resistant S. aureus” value is listed as “effective”.
